The values that follow come from publication PMC2766802 (Analytical biochemistry, 2009).

pIC50: −log10 of the molar value. Structures can show the parent of a compound that is named as a salt. Where two headings read alike, the source gives them in different places.

One data set has as its target hERG channel (Homo sapiens, UniProt Q12809).
Data set [1] relates to untransduced U-2 OS cells. Kind of data set: thallium flux counter-screen in untransduced U-2 OS cells. The class given is cell-based, human. The conditions noted are these: concentration response (Fig. 3A). For orientation: Counterscreens check selectivity or assay interference.
Setting [2] is: IC50, LOPAC 1280 library qHTS, titration series, hERG-expressing U-2 OS cells.

hERG channel, sequence (Q12809 whole entry): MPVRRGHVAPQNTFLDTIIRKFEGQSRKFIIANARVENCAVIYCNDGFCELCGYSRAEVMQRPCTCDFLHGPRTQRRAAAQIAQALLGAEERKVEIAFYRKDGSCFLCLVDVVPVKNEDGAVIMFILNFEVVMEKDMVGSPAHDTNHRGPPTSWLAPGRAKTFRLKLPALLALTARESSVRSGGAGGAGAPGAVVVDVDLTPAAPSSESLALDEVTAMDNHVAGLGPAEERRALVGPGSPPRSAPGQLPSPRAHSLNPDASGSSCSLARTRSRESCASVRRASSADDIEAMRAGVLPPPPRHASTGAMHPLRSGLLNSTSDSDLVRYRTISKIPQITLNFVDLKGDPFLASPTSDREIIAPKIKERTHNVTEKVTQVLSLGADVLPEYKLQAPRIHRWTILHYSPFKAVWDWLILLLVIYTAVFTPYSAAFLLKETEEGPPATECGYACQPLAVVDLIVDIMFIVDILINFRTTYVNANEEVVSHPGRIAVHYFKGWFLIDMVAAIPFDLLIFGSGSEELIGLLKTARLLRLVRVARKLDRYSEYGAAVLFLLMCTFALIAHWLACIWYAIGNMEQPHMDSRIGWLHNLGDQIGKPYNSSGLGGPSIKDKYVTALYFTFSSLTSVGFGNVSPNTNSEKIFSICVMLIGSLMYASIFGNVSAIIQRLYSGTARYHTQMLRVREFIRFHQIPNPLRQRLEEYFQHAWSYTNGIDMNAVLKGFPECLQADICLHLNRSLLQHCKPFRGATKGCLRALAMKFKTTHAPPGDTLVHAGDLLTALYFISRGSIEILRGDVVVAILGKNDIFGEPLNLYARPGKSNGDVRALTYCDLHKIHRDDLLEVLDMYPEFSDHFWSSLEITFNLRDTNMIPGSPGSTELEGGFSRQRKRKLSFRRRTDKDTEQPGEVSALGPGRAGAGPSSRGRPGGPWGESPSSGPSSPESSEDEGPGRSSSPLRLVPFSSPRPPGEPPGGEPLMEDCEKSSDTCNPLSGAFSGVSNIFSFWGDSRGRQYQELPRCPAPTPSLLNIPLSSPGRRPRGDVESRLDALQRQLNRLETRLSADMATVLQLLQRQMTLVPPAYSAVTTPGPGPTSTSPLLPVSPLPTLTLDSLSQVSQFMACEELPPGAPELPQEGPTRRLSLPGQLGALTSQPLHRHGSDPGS

Broadly, the pIC50 is −log10 of the IC50, conventionally taken in molar units. Read a high pIC50 as a small IC50. For the compound `CCNC(=O)N1CCN(CCCC(c2ccc(F)cc2)c2ccc(F)cc2)CC1` [Amperozide hydrochloride], the pIC50 on hERG channel (setting [2]) is 7.22. On to `CCCCN1[C@@H]2CC[C@H]1CC(OC(c1ccc(F)cc1)c1ccc(F)cc1)C2` (some centres unmarked) [JHW 007 hydrochloride], for which, on hERG channel (LOPAC 1280 library qHTS, titration series, hERG-expressing U-2 OS cells), the pIC50 is 7.05. In turn, `Cc1nc2sccn2c(=O)c1CCN1CCC(=C(c2ccc(F)cc2)c2ccc(F)cc2)CC1` [Ritanserin] gave a pIC50 on hERG channel (setting [2]) of 7.15. Turning to `CCOC(=O)C1=C[C@]2(CC)CCCN3CCc4c(n1c1ccccc41)[C@@H]32` [Vinpocetine], the pIC50 on hERG channel was 6.85. As to `O=C(CCCN1CCC(O)(c2ccc(Cl)cc2)CC1)c1ccc(F)cc1` [haloperidol], in data set [1], the “effect on untransduced cells” value is “no effect”.
